From patent US20210318318A1, “Kinase Activity In Tumors” (Institute For Cancer Research d/b/a The Research Institute …, priority 2018, published 2021)

How the values were obtained:
ROCK1 = target: T1, ROCK1 (Homo sapiens, UniProt Q13464); test: MIB/MS kinome profiling of inhibitor-treated OVSAHO cells; format: cell-based; settings: 2 μM, 4 hours
T1 construct: endogenous in cells; host or cells: OVSAHO
Procedure: (§1) OVSAHO cells were treated with 2 μM of inhibitor for 4 hours and analyzed by MIB/MS. Scatterplot depicts difference in kinase MIB-binding of drug treated relative to control DMSO as determined by Students T-test.
Scatter plot depicts statistical differences in MIB-binding as a ratio of inhibitor/DMSO. Cells were treated with inhibitors at a dose of 2 μM and subjected to MIB/MS. Changes in MIB-binding were quantified using label free quantitation. Data presented in (A) are triplicate experiments SEM. *p≤0.05 by student's t-test.
(§2) MIB-based kinome profiling was performed on several of these molecules in HGSOC cells to determine kinome-wide inhibition profiles.
Experiments using MIB/MS were performed as previously described (Duncan et al., Cell, 2012, 149, 307-321; and Kurimchak et al., Cell Reports, 2016, 16, 1273-1286). […] Protein concentrations were determined by BCA analysis (Thermo). […] An equal amount of the HKS was added to the non-labeled sample (cell, tumor or normal tissue) providing a quantitative strategy to compare kinome activity/levels across samples, amongst treatments and, importantly, across time. […]

MRCKA = MRCKA (Homo sapiens, UniProt Q5VT25); test: as above; format: cell-based; parameters: endogenous in cells; host or cells: OVSAHO; settings: 2 μM, 4 hour treatment
Chain of MRCKA (Q5VT25 whole entry): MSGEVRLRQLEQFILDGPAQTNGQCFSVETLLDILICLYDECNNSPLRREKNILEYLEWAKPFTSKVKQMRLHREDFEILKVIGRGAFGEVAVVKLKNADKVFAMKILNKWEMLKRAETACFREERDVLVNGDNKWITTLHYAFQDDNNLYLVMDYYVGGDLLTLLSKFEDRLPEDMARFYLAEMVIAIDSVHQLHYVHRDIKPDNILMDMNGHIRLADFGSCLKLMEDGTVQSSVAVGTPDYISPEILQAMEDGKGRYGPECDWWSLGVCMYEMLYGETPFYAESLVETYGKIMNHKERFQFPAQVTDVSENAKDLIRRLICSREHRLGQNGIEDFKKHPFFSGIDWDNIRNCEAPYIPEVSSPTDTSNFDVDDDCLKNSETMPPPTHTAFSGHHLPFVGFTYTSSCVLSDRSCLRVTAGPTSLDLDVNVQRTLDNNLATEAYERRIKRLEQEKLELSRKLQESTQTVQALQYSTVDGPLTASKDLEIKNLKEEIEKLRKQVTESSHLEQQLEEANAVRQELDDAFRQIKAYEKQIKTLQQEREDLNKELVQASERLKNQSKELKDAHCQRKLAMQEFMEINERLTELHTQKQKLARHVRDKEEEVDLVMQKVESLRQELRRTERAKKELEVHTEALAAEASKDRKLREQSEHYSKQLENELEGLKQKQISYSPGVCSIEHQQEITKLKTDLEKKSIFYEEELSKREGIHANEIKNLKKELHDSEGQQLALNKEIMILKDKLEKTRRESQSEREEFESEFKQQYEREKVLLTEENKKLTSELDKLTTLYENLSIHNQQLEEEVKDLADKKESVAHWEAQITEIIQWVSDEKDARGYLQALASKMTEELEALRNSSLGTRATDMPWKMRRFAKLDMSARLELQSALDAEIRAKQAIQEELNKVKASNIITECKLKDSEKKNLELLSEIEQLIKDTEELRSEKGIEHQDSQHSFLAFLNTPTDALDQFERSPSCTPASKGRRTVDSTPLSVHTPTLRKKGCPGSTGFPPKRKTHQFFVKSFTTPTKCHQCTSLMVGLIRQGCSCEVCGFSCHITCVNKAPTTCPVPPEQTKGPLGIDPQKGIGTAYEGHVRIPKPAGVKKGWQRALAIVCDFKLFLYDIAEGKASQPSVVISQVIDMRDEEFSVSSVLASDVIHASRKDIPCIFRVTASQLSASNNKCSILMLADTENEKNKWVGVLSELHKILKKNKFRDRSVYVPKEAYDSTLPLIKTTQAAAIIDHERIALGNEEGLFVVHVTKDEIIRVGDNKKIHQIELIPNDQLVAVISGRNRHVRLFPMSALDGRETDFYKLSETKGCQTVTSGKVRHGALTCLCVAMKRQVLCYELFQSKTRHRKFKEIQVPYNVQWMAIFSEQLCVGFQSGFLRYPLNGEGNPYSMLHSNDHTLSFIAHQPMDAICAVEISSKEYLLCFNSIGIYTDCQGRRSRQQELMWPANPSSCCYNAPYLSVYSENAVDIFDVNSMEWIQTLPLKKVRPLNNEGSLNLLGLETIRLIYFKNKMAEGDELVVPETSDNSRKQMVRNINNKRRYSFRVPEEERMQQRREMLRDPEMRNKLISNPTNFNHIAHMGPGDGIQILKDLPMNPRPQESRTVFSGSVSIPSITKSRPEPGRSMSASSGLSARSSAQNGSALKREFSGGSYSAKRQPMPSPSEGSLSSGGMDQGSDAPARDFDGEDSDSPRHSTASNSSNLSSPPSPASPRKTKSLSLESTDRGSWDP
Procedure: (§3) OVSAHO cells were treated with inhibitors at a dose of 2 μM for 4 hours and kinase inhibition profiles determined by MIB/MS. Bar graph depicts % of kinase bound to MIBs relative to DMSO control as determined by label free quantitation.
as §1, §2
(§4) Experiments using MIB/MS were performed as previously described (Duncan et al., Cell, 2012, 149, 307-321; and Kurimchak et al., Cell Reports, 2016, 16, 1273-1286). Briefly, cells or tumors were lysed on ice in buffer containing 50 mM HEPES (pH 7.5), 0.5% Triton X-100, 150 mM NaCl, 1 mM EDTA, 1 mM EGTA, 10 mM sodium fluoride, 2.5 mM sodium orthovanadate, 1× protease inhibitor cocktail (Roche), and 1% each of phosphatase inhibitor cocktails 2 and 3 (Sigma). Particulate was removed by centrifugation of lysates at 13,000 rpm for 10 minutes at 4° C. and filtration through 0.2 μm syringe filters. Protein concentrations were determined by BCA analysis (Thermo). To compare kinome signatures within and across such large sample sizes, a super-SILAC method was designed (Neubert et al., Nat. Meth., 2010, 7, 361-362) consisting of a cocktail of cancer cell lines that encompasses the activity of the “cancer kinome” to be used as a control for individual samples. Five cancer cell lines were selected from the NCI-60 panel (UACC257, MOLT4, COL0205, ACHN and PC3) that differed in their origin, gene expression patterns and mutation status. The cancer cell lines were labeled using SILAC and mixed equally providing a diverse SILAC ([^13C6,^15N4] arginine (Arg^10) and […] (Lys^8)) heavy kinome reference standard (HKS) to be used repeatedly in kinome profiling assays. An equal amount of the HKS was added to the non-labeled sample (cell, tumor or normal tissue) providing a quantitative strategy to compare kinome activity/levels across samples, amongst treatments and, importantly, across time. […]
(§5) Proteolytic peptides were resuspended in 0.1% formic acid and separated with a Thermo RSLC Ultimate 3000 on a Thermo Easy-Spray C18 PepMap 75 μm×50 cm C-18 2 μm column with a 240 minute gradient of 4-25% acetonitrile with 0.1% formic acid at 300 nL/min and 50° C. Eluted peptides were analyzed by a Thermo Q Exactive plus mass spectrometer utilizing a top 15 methodology in which the 15 most intense peptide precursor ions were subjected to fragmentation.

[1] = tested on: FAK1, MLC and Paxillin phosphorylation; FAK1 and CHEK1 protein levels; test: Western blot of signaling in inhibitor-treated HGSOC cells; format: cell-based, human; settings: HGSOC (COV362) cells, increasing doses 0.5, 1 or 3 μM, 48 hours
Procedure: COV362 cells were treated with 0.5, 1 or 3 μM of A-674563 or SB-772077 for 48 hours and signaling monitored by western blot.
Samples were harvested in MIB lysis buffer, subjected to SDS-PAGE […] and transferred to PVDF membranes before western blotting with primary antibodies. For pMYPT and pMLC blots, cells were harvested in a buffer containing 1% (w/v) SDS, 50 mM Tris pH 7.5 supplemented with protease and phosphatase inhibitors buffer and were passed through QIAshredder columns (Qiagen, 79654), (Unbekandt et al., Cell Commun. Signal., 2014, 12, 54). For the list of primary antibodies used, see Table 4. Secondary HRP-anti-rabbit and HRP-anti-mouse were obtained from ThermoFisher Scientific. SuperSignal West Pico and Femto Chemiluminescent Substrates (Thermo) were used to visualize blots.

ROCK2 = target: T2, ROCK2 (Homo sapiens, UniProt O75116); test: MIB/MS kinome profiling of inhibitor-treated OVSAHO cells; format: cell-based; settings: 2 μM, 4 hours
T2 construct: endogenous in cells; host or cells: OVSAHO
Procedure: as §1, §2
Experiments using MIB/MS were performed as previously described (Duncan et al., Cell, 2012, 149, 307-321; and Kurimchak et al., Cell Reports, 2016, 16, 1273-1286). Briefly, cells or tumors were lysed on ice in buffer containing 50 mM HEPES (pH 7.5), 0.5% Triton X-100, 150 mM NaCl, 1 mM EDTA, 1 mM EGTA, 10 mM sodium fluoride, 2.5 mM sodium orthovanadate, 1× protease inhibitor cocktail (Roche), and 1% each of phosphatase inhibitor cocktails 2 and 3 (Sigma). Particulate was removed by centrifugation of lysates at 13,000 rpm for 10 minutes at 4° C. and filtration through 0.2 μm syringe filters. Protein concentrations were determined by BCA analysis (Thermo). To compare kinome signatures within and across such large sample sizes, a super-SILAC method was designed (Neubert et al., Nat. Meth., 2010, 7, 361-362) consisting of a cocktail of cancer cell lines that encompasses the activity of the “cancer kinome” to be used as a control for individual samples. […] An equal amount of the HKS was added to the non-labeled sample (cell, tumor or normal tissue) providing a quantitative strategy to compare kinome activity/levels across samples, amongst treatments and, importantly, across time. […]
as §5

MRCKB = target: T3, MRCKB (Homo sapiens, UniProt Q9Y5S2); test: as above; format: cell-based; settings: 2 μM, 4 hour treatment
T3 construct: endogenous in cells; host or cells: OVSAHO
T3 sequence (Q9Y5S2 whole entry): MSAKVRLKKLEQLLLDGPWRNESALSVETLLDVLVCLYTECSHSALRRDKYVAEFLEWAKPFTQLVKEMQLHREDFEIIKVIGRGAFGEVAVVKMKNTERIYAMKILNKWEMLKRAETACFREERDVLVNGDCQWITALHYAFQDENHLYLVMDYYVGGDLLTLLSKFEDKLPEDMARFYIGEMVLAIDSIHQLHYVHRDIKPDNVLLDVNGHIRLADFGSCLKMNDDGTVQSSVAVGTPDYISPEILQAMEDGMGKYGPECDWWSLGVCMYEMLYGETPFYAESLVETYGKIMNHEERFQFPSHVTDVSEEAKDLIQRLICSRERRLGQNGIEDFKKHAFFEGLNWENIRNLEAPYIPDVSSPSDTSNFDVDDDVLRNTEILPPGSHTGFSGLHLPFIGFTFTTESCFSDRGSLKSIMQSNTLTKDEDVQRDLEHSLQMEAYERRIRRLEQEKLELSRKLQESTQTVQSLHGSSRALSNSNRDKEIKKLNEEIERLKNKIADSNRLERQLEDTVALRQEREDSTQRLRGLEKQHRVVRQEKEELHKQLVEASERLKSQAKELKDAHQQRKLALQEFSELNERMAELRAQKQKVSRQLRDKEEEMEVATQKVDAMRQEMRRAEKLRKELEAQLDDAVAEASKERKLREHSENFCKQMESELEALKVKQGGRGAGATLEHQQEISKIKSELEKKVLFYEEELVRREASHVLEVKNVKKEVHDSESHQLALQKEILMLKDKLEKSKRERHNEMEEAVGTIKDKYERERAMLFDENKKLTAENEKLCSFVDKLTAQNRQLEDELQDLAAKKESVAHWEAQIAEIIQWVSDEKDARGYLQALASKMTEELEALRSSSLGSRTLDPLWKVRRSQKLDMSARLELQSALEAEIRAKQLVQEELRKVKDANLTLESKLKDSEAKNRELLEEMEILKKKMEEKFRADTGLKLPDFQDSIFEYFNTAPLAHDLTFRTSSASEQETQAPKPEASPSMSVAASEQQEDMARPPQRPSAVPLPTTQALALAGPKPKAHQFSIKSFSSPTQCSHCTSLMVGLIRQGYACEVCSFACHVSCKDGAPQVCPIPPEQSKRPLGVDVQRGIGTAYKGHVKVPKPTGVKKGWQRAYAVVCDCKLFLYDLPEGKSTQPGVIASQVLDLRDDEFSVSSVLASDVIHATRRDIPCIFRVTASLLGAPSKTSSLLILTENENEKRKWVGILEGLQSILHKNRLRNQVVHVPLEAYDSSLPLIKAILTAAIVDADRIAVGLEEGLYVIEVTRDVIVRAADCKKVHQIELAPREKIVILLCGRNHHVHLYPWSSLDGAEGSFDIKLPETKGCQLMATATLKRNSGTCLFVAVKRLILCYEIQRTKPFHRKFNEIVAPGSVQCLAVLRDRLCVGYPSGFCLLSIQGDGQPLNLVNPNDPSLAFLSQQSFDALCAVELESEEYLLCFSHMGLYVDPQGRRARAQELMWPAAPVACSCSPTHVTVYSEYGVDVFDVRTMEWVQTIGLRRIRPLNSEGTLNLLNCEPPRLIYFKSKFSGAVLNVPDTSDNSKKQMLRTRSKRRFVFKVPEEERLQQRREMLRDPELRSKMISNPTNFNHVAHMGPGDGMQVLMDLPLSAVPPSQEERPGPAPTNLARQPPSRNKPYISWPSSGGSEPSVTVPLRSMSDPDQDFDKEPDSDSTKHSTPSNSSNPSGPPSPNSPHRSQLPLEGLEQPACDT
Procedure: as §3, §1, §2, §4, §5

COV362 = test: Short-term growth assay (CellTiter-Glo cell viability), kinase inhibitors; format: cell-based, human; settings: drug 1.2 uM
Procedure: (§6) Cell viability was determined by Cell Titer Glo analysis.
COV362 cells were treated with increasing concentrations of A-674563 and cell viability assessed by Cell Titer Glo according to manufacturer's instructions. Data represent the mean of six replicates.
(§7) To explore the therapeutic potential of the HGSOC kinome signature, a detailed molecular analysis of protein levels/activity, growth and survival functions was carried out in a panel of recently validated HGSOC cell lines (Coscia et al., Nat. Commun., 2016, 7, 12645) that harbor commonly encountered HGSOC mutations and genetic rearrangements (see, FIG. 5A).
(§8) For short-term growth assays, 3000-5000 cells were plated per well in 96-well plates and allowed to adhere and equilibrate overnight. Drug was added the following morning and after 120 hours of drug treatment, cell viability was assessed using the CellTiter-Glo Luminescent cell viability assay according to manufacturer (Promega). Students t tests were performed for statistical analyses and p values ≤0.05 were considered significant. For colony formation assays, cells were plated in 24-well dishes (3000-5000 cells per well) and incubated overnight before continuous drug treatment for 14 days, with drug and media replaced twice weekly. At the end of treatment, cells were rinsed with PBS and fixed with chilled methanol for 10 minutes at −20° C. Methanol was removed by aspiration, and cells were stained with 0.5% crystal violet in 20% methanol for 20 minutes at room temperature, washed with distilled water, and scanned.

Kuramochi = test: as above; format: cell-based, human; settings: drug 1.2 uM
Procedure: as §6, §7, §8

SNU-119 = test: as above; format: cell-based, human; settings: drug 1.2 uM
Procedure: as §6, §7, §8

OVCAR4 = test: as above; format: cell-based, human; settings: drug 1.2 uM
Procedure: as §6, §7, §8

OVSAHO = test: as above; format: cell-based, human; settings: drug 1.2 uM
Procedure: as §6, §7, §8

HGSOC cells = test: Cell viability of HGSOC cell line panel (Cell Titer Glo); format: cell-based, human; settings: increasing concentrations; Cell Titer Glo
Procedure: Cells were treated with increasing concentrations of PF-03758309 and cell viability assessed by Cell Titer Glo according to manufacturer's instructions. Data represent the mean of six replicates.
Cell viability was assessed by Cell Titer Glo according to manufacturing. Data represent the mean of six replicates.
as §8

T1 sequence (Q13464 whole entry): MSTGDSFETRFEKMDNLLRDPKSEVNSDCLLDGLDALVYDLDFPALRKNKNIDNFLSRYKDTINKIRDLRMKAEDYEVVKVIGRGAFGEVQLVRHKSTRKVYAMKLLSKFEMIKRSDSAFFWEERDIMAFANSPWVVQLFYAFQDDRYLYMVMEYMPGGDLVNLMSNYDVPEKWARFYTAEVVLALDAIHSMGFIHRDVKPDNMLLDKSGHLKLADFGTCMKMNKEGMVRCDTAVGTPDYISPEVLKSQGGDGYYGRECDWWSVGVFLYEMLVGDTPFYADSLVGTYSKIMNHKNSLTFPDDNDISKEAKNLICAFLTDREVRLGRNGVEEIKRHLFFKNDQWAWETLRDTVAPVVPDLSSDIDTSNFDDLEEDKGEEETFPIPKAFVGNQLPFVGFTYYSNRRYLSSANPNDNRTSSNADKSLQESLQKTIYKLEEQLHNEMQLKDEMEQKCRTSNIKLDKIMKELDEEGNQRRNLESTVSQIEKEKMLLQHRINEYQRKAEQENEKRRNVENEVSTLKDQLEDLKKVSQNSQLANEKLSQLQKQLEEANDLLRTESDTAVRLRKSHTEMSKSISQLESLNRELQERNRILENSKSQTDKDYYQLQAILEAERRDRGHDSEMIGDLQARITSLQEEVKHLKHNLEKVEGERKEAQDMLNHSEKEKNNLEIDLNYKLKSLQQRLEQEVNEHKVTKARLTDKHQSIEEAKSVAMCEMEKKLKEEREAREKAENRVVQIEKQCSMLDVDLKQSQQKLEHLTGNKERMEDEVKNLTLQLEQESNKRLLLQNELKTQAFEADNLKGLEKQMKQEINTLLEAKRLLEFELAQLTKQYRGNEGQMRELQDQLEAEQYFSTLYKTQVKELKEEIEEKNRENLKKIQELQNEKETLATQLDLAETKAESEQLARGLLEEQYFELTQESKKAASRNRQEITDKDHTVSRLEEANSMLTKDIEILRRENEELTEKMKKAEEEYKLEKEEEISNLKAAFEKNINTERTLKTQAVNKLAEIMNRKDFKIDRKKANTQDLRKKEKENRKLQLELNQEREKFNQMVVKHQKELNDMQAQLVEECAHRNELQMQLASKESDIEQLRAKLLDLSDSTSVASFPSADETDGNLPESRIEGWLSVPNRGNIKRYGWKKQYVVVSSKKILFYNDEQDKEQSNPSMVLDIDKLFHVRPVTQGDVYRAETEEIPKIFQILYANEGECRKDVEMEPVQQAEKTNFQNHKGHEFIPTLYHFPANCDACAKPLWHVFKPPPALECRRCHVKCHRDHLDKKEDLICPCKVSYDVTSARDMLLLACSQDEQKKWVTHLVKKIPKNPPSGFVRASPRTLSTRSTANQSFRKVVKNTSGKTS

Compound | MIB-binding of ROCK1 (ROCK1) | MIB-binding of MRCKA relative to DMSO (MRCKA) | FAK1, MLC and Paxillin phosphorylation [1] | MIB-binding of ROCK2 (ROCK2) | MIB-binding of MRCKB relative to DMSO (MRCKB) | Kinase inhibition profile of HGSOC cells (growth inhibition, Cell Titer Glo) (COV362) | Kinase inhibition profile of HGSOC cells (growth inhibition, Cell Titer Glo) (Kuramochi) | Kinase inhibition profile of HGSOC cells (growth inhibition, Cell Titer Glo) (SNU-119) | Kinase inhibition profile of HGSOC cells (growth inhibition, Cell Titer Glo) (OVCAR4) | Kinase inhibition profile of HGSOC cells (growth inhibition, Cell Titer Glo) (OVSAHO) | cell viability of HGSOC cells (HGSOC cells)
CC1=C(C(=O)Nc2cc(Cl)c3[nH]ncc3c2)C(c2ccc(C(F)(F)F)cc2)CC(=O)N1 (centres unmarked) [GSK466317A] | reduction in MIB-binding | Reduced MIB-binding | reduced | reduction in MIB-binding | Reduced MIB-binding | – | – | – | – | – | –
CS(=O)(=O)CCNCc1ccc(-c2ccc3ncnc(Nc4ccc(OCc5cccc(F)c5)c(Cl)c4)c3c2)o1 [Lapatinib] | – | no effect | – | – | no effect | 0.9973 | 0.9704 | 0.15 | 0.974 | 1.053 | –
CNC(=O)c1ccccc1Nc1cc(Nc2ccc(N3CCOCC3)cc2OC)ncc1C(F)(F)F [PND1186] | – | – | – | – | – | 0.34 | 0.51 | 0 | 0.51 | 0.69 | reduced cell viability
O=C(NCc1cccc(O)c1)Nc1nc(-c2ccncc2)cs1 [RKI-1447] | reduction in MIB-binding | – | reduced | – | – | – | – | – | – | – | –
